In patent publication US8628754B2, “Highly efficient delivery of a large therapeutic mass aerosol” (Civitas Therapeutics, Inc., priority 2000, dated 2014):
Like-named read-outs stand apart in the source and are kept apart here.

Key:
[1] = system: rat model of Parkinson's disease; assay: Rotation test; format: in vivo
[2] = system: rat model of Parkinson's disease; assay: Akinesia task; format: in vivo
[3] = oral gavage, 8 mg in saline with 1% methylcellulose, carbidopa pre-treatment, 0-30 min
[4] = system: rat model of Parkinson's disease; assay: Placing task; format: in vivo
[5] = system: rat model of Parkinson's disease; assay: Bracing task; format: in vivo
[6] = Geometric diameter by RODOS dry powder disperser / HELOS laser diffraction; format: physicochemical
Description: The Applicants introduced the powders into and dispersed the powder through an orifice in the RODOS dry powder disperser at varying shear forces by manipulating the regulator pressure of the air stream used to break up the particles. The Applicants obtained the geometric size distribution from the HELOS laser diffractometer as the powder exited and recorded the median value. The data was summarized and plotted as the mass median geometric diameter (MMGD) against pressure.
To evaluate the deagglomeration properties of the three powders, Applicants introduced the powders into a RODOS dry powder disperser and varied the shear force in order to break up the particles by manipulating the regulator pressure of the air stream. Subsequently, following the manufacturer's instructions, Applicants obtained the geometric size distribution from the HELOS laser diffractometer and recorded the median value. The data was summarized and plotted as […] (MMGD) against pressure.
Particles of the present invention were further characterized by the following techniques. The primary geometric diameter was measured using a RODOS dry powder disperser (Sympatec, Princeton, N.J.) in conjunction with a HELOS laser diffractometer (Sympatec). Powder was introduced into the RODOS inlet and aerosolized by shear forces generated by a compressed air stream regulated at 4 bar. The aerosol cloud was subsequently drawn into the measuring zone of the HELOS, where it scattered light from a laser beam and produced a Fraunhofer diffraction pattern used to infer the particle size distribution.
Geometric diameter was determined using a laser diffraction technique (Alkermes SOP #MS-021-005). The equipment consists of a HELOS diffractometer and a RODOS disperser (Sympatec, Inc., Princeton, N.J.). The RODOS disperser applies a shear force to a sample of particles, controlled by the regulator pressure of the incoming compressed air. The dispersed particles travel through a laser beam where the resulting diffracted light pattern produced is collected by a series of detectors. […]

[7] = Aerodynamic diameter by AeroDisperser/Aerosizer (AeroBreather for emitted size); format: physicochemical; conditions: AIR inhaler at 30 L/min, FIG. 2B
Procedure: The primary aerodynamic diameter was measured using an AeroDisperser/Aerosizer (TSI Inc., Amherst, Mass.). The sample powder was aerosolized by an inlet air stream at 1 psi in the AeroDisperser and then accelerated to sonic velocity into the Aerosizer. The Aerosizer measures the time taken for each particle to pass between two fixed laser beams, which is dependent on the particle's inertia. The TOF (time of flight) measurements were subsequently converted into aerodynamic diameters using Stokes law.
The emitted aerodynamic diameter from the AIR inhaler was determined using the AeroBreather (TSI Inc., Amherst, Mass.) in conjunction with the Aerosizer (TSI, Inc.). The powder was aerosolized from the inhaler at 30 L/min into the AeroBreather chamber and allowed to settle into the Aerosizer.
Aerodynamic diameter was analyzed using the API AeroDisperser and Aerosizer (TSI, Inc., St. Paul, Minn.) following standard procedures (Alkermes SOP #MS-034-005). Sample powder was introduced and dispersed in the AeroDisperser and then accelerated through a nozzle in the Aerosizer. A direct time-of-flight measurement was made for each particle in the Aerosizer, which was dependent on the particle's inertia. The time-of-flight distribution was then translated into a mass-based aerodynamic particle size distribution using a force balance based on Stokes law.

[8] = Geometric diameter emitted from breath-activated inhaler (IHA/HELOS); format: physicochemical; conditions: 5 mg in size #2 capsule
Procedure: To further evaluate the ability of the three powders to emit from a simple, breath-activated inhaler, Applicants placed 5 mg of each powder in a size #2 methyl cellulose capsule and inserted the capsule into a breath-activated inhaler. It will be appreciated by those skilled in the art that the receptacle into which the powders are placed will depend on the type of inhaler selected. […] The same results were obtained from measurements of the aerodynamic diameter, with spray-dried particles emitting with very similar aerodynamic diameters as compared to the primary particles.
The geometric diameter emitted from the breath-activated inhaler was measured using an IHA accessory (Sympatec) with the HELOS laser diffractometer. The IHA adapter positions the DPI in front of the measuring zone and allows air to be pulled through the DPI which aerosolizes the powder. Vacuum was drawn at 30 L/min to disperse powder from the AIR inhaler and the geometric diameter was measured by Fraunhofer diffraction.

[9] = Tap density; format: physicochemical
Description: Tap density can be measured by using instruments known to those skilled in the art such as the Dual Platform Microprocessor Controlled Tap Density Tester (Vankel, N.C.). Tap density is a standard measure of the envelope mass density. Tap density can be determined using the method of USP Bulk Density and Tapped Density, United States Pharmacopia convention, Rockville, Md., 10th Supplement, 4950-4951, 1999. In another embodiment, the particles have a mass median geometric diameter (MMGD) greater than about 5 μm and preferably near to or greater than about 10 μm. In one embodiment, the particles have a MMGD greater than about 5 μm and ranging to about 30 μm. In another embodiment, the particles have a MMGD ranging from about 10 μm to about 30 μm.

Compound: CC(C(=O)O)c1cccc(C(=O)c2ccccc2)c1 (stereo not drawn) [Ketoprofen]
- time required to achieve maximum plasma concentration (insufflated rats): < 15 min
- time required to achieve maximum plasma concentration (orally dosed rats): 15 to 60 min
- time required to achieve maximum plasma concentration (pulmonary delivery route): ≤ 10 min
- plasma levels of ketoprofen, insufflated versus oral group (t=5 min to t=60 min): significantly higher
- plasma levels of ketoprofen, insufflated versus oral group (t=120 min and t=240 min): statistically equivalent

Compound: N[C@@H](Cc1ccc(O)c(O)c1)C(=O)O [L-Dopa]
- rotation behavior without pre-treatment with carbidopa ([1]; data not shown): virtually eliminated
- time of peak rotation levels ([1]; oral, 30 mg/kg): approximately 30 minutes
- rotations during the first 10-15 minutes ([1]; oral, 30 mg/kg, carbidopa pre-treatment): < 5 rotations/animal
- rotations relative to oral delivery within the first 10-15 minutes ([1]; pulmonary, 2 mg total): greater than 3 times
- time of peak rotations ([1]; pulmonary, 2 mg total): 25 to 30 min
- time of maximal effects ([2]; oral, 30 mg/kg): ≤ 60 min
- time to improved performance ([2]; oral, 30 mg/kg): ≤ 30 min
- lowest dose with statistically significant (p<0.05) improvements ([2]; pulmonary): 1.0 mg
- time of peak benefits ([2]; pulmonary): 15 to 30 min
- time to significant improvements ([2]; pulmonary): ≤ 10 min
- increase in blood levels of L-Dopa over time [3]: modest
- difference in drug required to produce equivalent efficacy, oral versus pulmonary ([4]; doses normalized by body weight): ~10 fold
- time of maximal effects ([4]; oral, 20 mg/kg): 60 min
- time of peak performance ([4]; oral, 30 mg/kg): 1 to 2 h
- time to improved performance with the impaired limb ([4]; oral, 30 mg/kg): ≤ 30 min
- lowest dose with significant improvements ([4]; pulmonary): 0.5 mg
- pulmonary dose with recovery comparable to 30 mg/kg given orally ([4]; pulmonary): 1 mg
- time of peak benefits ([4]; pulmonary, highest dose tested): 15 to 30 min
- time to significant improvements ([4]; pulmonary, highest dose tested): ≤ 10 min
- effect on performance ([5]; oral, 20 mg/kg): slightly improved performance
- time of maximal effects ([5]; oral, 30 mg/kg): ≤ 60 min
- time to improved performance ([5]; oral, 30 mg/kg): ≤ 30 min
- lowest dose with statistically significant improvements ([5]; pulmonary): 0.5 mg
- time of peak benefits ([5]; pulmonary): 15 to 30 min
- time to significant improvements ([5]; pulmonary): ≤ 10 min

Compound: albuterol sulfate [Micronized Alb. Sulfate (1)]
- primary particle size as measured by RODOS [6]: ~2 microns
- Dg (geometric diameter) ([6]; RODOS/HELOS): 2.5 μm
- state of powder exiting the RODOS orifice ([6]; pressures below 2 bars): aggregated state
- emitted aerodynamic diameter compared to primary aerodynamic diameter [7]: much larger
- geometric diameter emitted from the inhaler [8]: greater than 30 microns
- ρ (tap density) [9]: 0.26 g/cc
